Laboratory results as given in US12685312B2, “Sulfonamide apyrase inhibitors” (Texas Crop Science, Inc., priority 2022, dated 2026).

Test system: apyrase
Assay: Screen for apyrase inhibitors (Method 1, in vitro phosphate-release absorbance assay)
Type: biochemical
Conditions: inhibitor conc at 1 mM stock, 1 hr room temperature, absorbance 630 nm; rounded average of two assay results
Procedure, shortened: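 Phosphate-release colorimetric assay (Windsor method) in 60 mM Hepes, 3 mM MgCl2, 3 mM CaCl2, 3 mM ATP, pH 6.5, with compound or DMSO control added. Released phosphate developed with ammonium molybdate and ascorbic acid/TCA, then stopped with citrate/acetic acid.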

SMILES | % Inhibition of Apyrase [%]
N#Cc1cccc(NC(=O)c2ccc(Cl)c(S(=O)(=O)N3CCc4ccccc43)c2)c1 [I-462, 4-chloro-N-(3-cyanophenyl)-3-(indolin-1-ylsulfonyl)benzamide] | 59
CCOc1ccc(NC(=O)c2cccc(S(=O)(=O)Nc3ccc(OCC)cc3)c2)cc1 [I-541, N-(4-ethoxyphenyl)-3-(N-(4-ethoxyphenyl)sulfamoyl)benzamide] | 54
O=C(c1cccc(S(=O)(=O)Nc2ccc3c(c2)OCO3)c1)N1CCc2ccccc21 [I-188, N-(benzo[d][1,3]dioxol-5-yl)-3-(indoline-1-carbonyl)benzenesulfonamide] | 73
CC1Cc2ccccc2N1S(=O)(=O)c1cccc(C(=O)Nc2cccc(S(N)(=O)=O)c2)c1 (stereo not shown) [I-458, 3-((2-methylindolin-1-yl)sulfonyl)-N-(3-sulfamoylphenyl)benzamide] | 60
CN(c1ccccc1)S(=O)(=O)c1ccccc1C(=O)Nc1ccc(C#N)cc1 [I-235, N-(4-cyanophenyl)-2-(N-methyl-N-phenylsulfamoyl)benzamide] | 51
Cc1ccc(NC(=O)c2cccc(NS(=O)(=O)c3ccc(C)c(F)c3)c2)nc1 [I-655, 3-((3-fluoro-4-methylphenyl)sulfonamido)-N-(5-methylpyridin-2-yl)benzamide] | 35
O=C(Nc1ccc(S(=O)(=O)Nc2ccc(Cl)cc2)cc1)c1cccc(C(F)(F)F)c1 [I-976, N-(4-(N-(4-chlorophenyl)sulfamoyl)phenyl)-3-(trifluoromethyl)benzamide] | 60
O=C(Nc1ccc2c(c1)OC1(CCCC1)O2)c1cccc(S(=O)(=O)Nc2ccc3c(c2)OCO3)c1 [I-531, 3-(N-(benzo[d][1,3]dioxol-5-yl)sulfamoyl)-N-(spiro[benzo[d][1,3]dioxole-2,1′-cyclopentan]-5-yl)benzamide] | 55
COc1ccc(NC(=O)c2ccc(S(=O)(=O)Nc3cccc(C(F)(F)F)c3)cc2)c(OC)c1 [I-399, N-(2,4-dimethoxyphenyl)-4-(N-(3-(trifluoromethyl)phenyl)sulfamoyl)benzamide] | 43
CCOC(=O)c1c(NC(=O)c2cccc(S(=O)(=O)Nc3cccc(Cl)c3)c2)sc2c1CCCC2 [I-507, ethyl 2-(3-(N-(3-chlorophenyl)sulfamoyl)benzamido)-4,5,6,7-tetrahydrobenzo[b]thiophene-3-carboxylate] | 57
Cc1ccc(NC(=O)c2ccc(NS(=O)(=O)c3ccccc3)cc2)cc1C [I-917, N-(3,4-dimethylphenyl)-4-(phenylsulfonamido)benzamide] | 58
O=C(/C=C/c1cccc(Cl)c1)Nc1cccc(S(=O)(=O)Nc2ccc(Br)cc2)c1 [I-329, (E)-N-(3-(N-(4-bromophenyl)sulfamoyl)phenyl)-3-(3-chlorophenyl)acrylamide] | 65
O=C(Nc1cccc(S(=O)(=O)Nc2ccc(Br)cc2)c1)c1ccc2ncsc2c1 [I-199, N-(3-(N-(4-bromophenyl)sulfamoyl)phenyl)benzo[d]thiazole-6-carboxamide] | 66
Cc1nc2ccc(NC(=O)c3ccc(S(=O)(=O)N4CCCc5ccccc54)cc3)cc2s1 [I-889, 4-((3,4-dihydroquinolin-1(2H)-yl)sulfonyl)-N-(2-methylbenzo[d]thiazol-6-yl)benzamide] | 39
Cc1cccc(NC(=O)c2ccc(NS(=O)(=O)c3ccc(F)cc3)cc2)c1C [I-937, N-(2,3-dimethylphenyl)-4-((4-fluorophenyl)sulfonamido)benzamide] | 52
Cc1csc(NC(=O)c2cccc(NS(=O)(=O)c3ccccc3)c2)n1 [I-667, N-(4-methylthiazol-2-yl)-3-(phenylsulfonamido)benzamide] | 12
O=C(Nc1cccc([N+](=O)[O-])c1)c1ccc(Br)c(S(=O)(=O)Nc2cccc(F)c2)c1 [I-23, 4-bromo-3-(N-(3-fluorophenyl)sulfamoyl)-N-(3-nitrophenyl)benzamide] | 30
O=C(NCCCN1CCCC1=O)c1cccc(S(=O)(=O)Nc2ccc(Br)cc2)c1 [I-46, 3-(N-(4-bromophenyl)sulfamoyl)-N-(3-(2-oxopyrrolidin-1-yl)propyl)benzamide] | 12
Cn1cc(O)nc1NC(=O)c1cccc(S(=O)(=O)Nc2ccc(Br)cc2)c1 [I-272, 3-(N-(4-bromophenyl)sulfamoyl)-N-(4-hydroxy-1-methyl-1H-imidazol-2-yl)benzamide] | 52
CCc1ccccc1NC(=O)c1cccc(S(=O)(=O)N2c3ccccc3CC2C)c1 (stereo not shown) [I-445, N-(2-ethylphenyl)-3-((2-methylindolin-1-yl)sulfonyl)benzamide] | 61

SMILES | % Inhibition of Apyrase [%]
CN(c1ccccc1)S(=O)(=O)c1ccccc1C(=O)Nc1cccc(C(N)=O)c1 [I-814, N-(3-carbamoylphenyl)-2-(N-methyl-N-phenylsulfamoyl)benzamide] | 39
O=C(Nc1ccc(F)cc1)c1ccc(S(=O)(=O)Nc2ccccc2Cl)cc1 [I-400, 4-(N-(2-chlorophenyl)sulfamoyl)-N-(4-fluorophenyl)benzamide] | 41
O=C(Nc1cccc(C(F)(F)F)c1)c1cccc(NS(=O)(=O)c2ccc(Cl)nc2)c1 [I-643, 3-((6-chloropyridine)-3-sulfonamido)-N-(3-(trifluoromethyl)phenyl)benzamide] | 55
O=C(Nc1ccc(NS(=O)(=O)c2ccc3c(c2)OCCO3)cc1)c1cccc(N2CCCC2=O)c1 [I-886, N-(4-((2,3-dihydrobenzo[b][1,4]dioxine)-6-sulfonamido)phenyl)-3-(2-oxopyrrolidin-1-yl)benzamide] | 43
COc1ccc(Br)c(C(=O)Nc2cccc(NS(=O)(=O)c3ccc(C)c(C)c3)c2)c1 [I-338, 2-bromo-N-(3-((3,4-dimethylphenyl)sulfonamido)phenyl)-5-methoxybenzamide] | 69
O=C1Cc2cccc(NS(=O)(=O)c3ccc(Cl)cc3)c2N1 [I-844, 4-chloro-N-(2-oxoindolin-7-yl)benzenesulfonamide] | 5
O=C(Nc1cccc(S(=O)(=O)Nc2cccc(C(F)(F)F)c2)c1)c1ccoc1 [I-762, N-(3-(N-(3-(trifluoromethyl)phenyl)sulfamoyl)phenyl) furan-3-carboxamide] | 16
O=C(Nc1cccc(S(=O)(=O)Nc2cccc(C(F)(F)F)c2)c1)c1cc2ccccc2o1 [I-715, N-(3-(N-(3-(trifluoromethyl)phenyl)sulfamoyl)phenyl) benzofuran-2-carboxamide] | 58
CCCNC(=O)CN(CCC)C(=O)c1cccc(S(=O)(=O)Nc2ccc(Br)cc2)c1 [I-287, 3-(N-(4-bromophenyl)sulfamoyl)-N-(2-oxo-2-(propylamino)ethyl)-N-propylbenzamide] | 11
O=C(Nc1cccc(S(=O)(=O)Nc2cccc(C(F)(F)F)c2)c1)c1cc2c(s1)CCCC2 [I-724, N-(3-(N-(3-(trifluoromethyl)phenyl)sulfamoyl)phenyl)-4,5,6,7-tetrahydrobenzo[b]thiophene-2-carboxamide] | 57
Cc1ccccc1NS(=O)(=O)c1ccc(C(=O)N2c3ccccc3CC2C)cc1 (stereo not shown) [I-879, 4-(2-methylindoline-1-carbonyl)-N-(o-tolyl)benzenesulfonamide] | 53
Cn1cc(O)nc1NC(=O)c1cccc(S(=O)(=O)Nc2ccc(Br)cc2)c1 [I-12, 3-(N-(4-bromophenyl)sulfamoyl)-N-(4-hydroxy-1-methyl-1H-imidazol-2-yl)benzamide] | 59
Cc1cnc(NC(=O)c2cccc(NS(=O)(=O)c3ccc(Cl)c(Cl)c3)c2)[nH]1 [I-633, 3-((3,4-dichlorophenyl)sulfonamido)-N-(5-methyl-1H-imidazol-2-yl)benzamide] | 60
O=C(Nc1ccc(S(=O)(=O)NC2CC2)cc1)c1cccc(S(=O)(=O)N2CCc3ccccc32)c1 [I-478, N-(4-(N-cyclopropylsulfamoyl)phenyl)-3-(indolin-1-ylsulfonyl)benzamide] | 58
O=C(Nc1ccc2c(c1)CCC2)c1ccc(NS(=O)(=O)c2ccc3c(c2)OCCO3)cc1 [I-910, N-(2,3-dihydro-1H-inden-5-yl)-4-((2,3-dihydrobenzo[b][1,4]dioxine)-6-sulfonamido)benzamide] | 60
N#Cc1ccc(NC(=O)c2cccc(S(=O)(=O)Nc3ccc4c(c3)OCO4)c2)cc1 [I-187, 3-(N-(benzo[d][1,3]dioxol-5-yl)sulfamoyl)-N-(4-cyanophenyl)benzamide] | 67
O=C(c1cccc(S(=O)(=O)N(Cc2ccccc2)c2cccc(C(F)(F)F)c2)c1)N1CCc2ccccc21 [I-457, N-benzyl-3-(indoline-1-carbonyl)-N-(3-(trifluoromethyl)phenyl)benzenesulfonamide] | 60
COc1cccc(C(=O)Nc2ccc(S(=O)(=O)Nc3ccccc3OC)cc2)c1 [I-973, 3-methoxy-N-(4-(N-(2-methoxyphenyl)sulfamoyl)phenyl)benzamide] | 63
CC(C)c1ccc(NC(=O)c2ccc(S(=O)(=O)N3CCCc4ccccc43)cc2)cc1 [I-864, 4-((3,4-dihydroquinolin-1(2H)-yl)sulfonyl)-N-(4-isopropylphenyl)benzamide] | 59
CCOC(=O)c1sc(NC(=O)c2cccc(S(=O)(=O)Nc3ccccc3F)c2)cc1C [I-432, ethyl 5-(3-(N-(2-fluorophenyl)sulfamoyl)benzamido)-3-methylthiophene-2-carboxylate] | 66
